{"source": "patent EP0366632A1", "about": "“Alternative energy substrates” (priority 1988, dated 1990)", "key": {"E. coli ATCC 8739": {"tested_on": "E. coli ATCC 8739", "test": "Microorganism count in 2% ester emulsions (Example 12, Table 1)", "type": "cell-based", "conditions": "2% emulsion, phosphate buffer pH=7.0, +37°C, Additive/ml 6310", "method": "(§1) In addition to ester, the emulsions also comprised egg-yolk phospholipid 1,2% and sterile water. The emulsions were prepared aseptically, by emulsifying sterile-filtered ester with a sterilized dispersion of egg-yolk phospholipids. Aliquots of these emulsions were diluted with a phosphate buffer (0.01 M, pH=7.0) in the proportions of 1 and 10 respectively, so as to obtain 2-percent emulsions. Various microorganisms according to Table 1 below were added to these emulsions. The samples were then incubated at +37°C for 20 hours. Counting of the number of microorganisms was started after 2 and 20 hours, in the manner described in microbiological literature. Checks were run on a pure phosphate buffer with additives of the same microorganisms as earlier, in parallel with the aforesaid experiments, while checks were run in Tryptone Soya broth (TSB) with additions of the same microorganisms, in order to ascertain whether or not the microorganisms could survive, i.e. could grow under the ideal conditions. […]"}, "Serr. maresc. ATCC 14756": {"tested_on": "Serr. maresc. ATCC 14756", "test": "Microorganism count in 2% ester emulsions (Example 12, Table 1)", "type": "cell-based", "conditions": "2% emulsion, phosphate buffer pH=7.0, +37°C, Additive/ml 6310", "method": "as §1"}, "Ulocladium sp. (mould)": {"tested_on": "Ulocladium sp. (mould)", "test": "Microorganism count in 2% ester emulsions (Example 12, Table 1)", "type": "cell-based", "conditions": "2% emulsion, phosphate buffer pH=7.0, +37°C, Additive/ml 2512", "method": "as §1"}, "[1]": {"test": "Cold storage of fat emulsion (Intralipid) with ester admixture: visual inspection, pH, mean particle size", "type": "physicochemical", "conditions": "for Mean particle size, X / pH / Mean particle size (single readings, Coulter nanosizer): Example 32: Intralipid 20%; for pH: after 5 day storage; for Mean particle size (single readings, Coulter nanosizer): listed as 5-methyl-3-oxo-pentanoic acid ethyl ester; for emulsion quality, daily visual inspection: Example 32: mother concentrate in Intralipid 20%; for emulsion quality, daily visual inspection / emulsion stability, daily visual inspection: +5°C, 5 days", "method": "A so-called mother concentrate was prepared by dissolving 6 g of egg-yolk phospholipids in 40 g of 4-methyl-3-oxo-pentanoic acid ethyl ester at +60°C, while stirring. 34 g of 99% ethyl alcohol were then added to the solution, whereafter the solution was cooled to room temperature and dispensed into 20 ml glass flasks. Nitrogen gas was then bubbled through the liquid and the flasks then stoppered and capsuled. The bottles were then autoclaved at +120°C and at 118 kPa for 20 minutes. A 10% fat emulsion for parenteral nutrient administration (Intralipid^R retailed by KabiVitrum AB, Stockholm) was added to the preparation under strict asceptic conditions, to a 4-methyl-3-oxo-pentanoic acid ethyl ester concentration of 0.2, 1 and 3% respectively. The emulsion was shaken for 5 minutes in a shaking machine and then placed in a cold environment (+5°C). The emulsion was thereafter observed over a 5 day period, wherewith a daily inspection was carried out to assess the formation of oil droplets, creaming or oil separation. The assessment was made in comparison with a known emulsion for parenteral use (Intralipid^R 10%). […] Subsequent to 5 days storage, an analysis was made of the pH and mean particle size in a Coulter nanosizer. The following values were obtained:\n(§2) A so-called mother concentrate produced by dissolving 6 g egg-yolk phospholipids in 40 g of 4-methyl-3-oxo-pentanoic acid-ethyl ester at +60°C, while stirring the system. 34 g of 99% ethyl alcohol were then added to the solution, whereafter the solution was cooled to room temperature and dispensed into 20 ml glass flasks. Nitrogen gas was perculated through the contents of the flasks, and the flasks subsequently stoppered and fitted with capsules. The flasks were then autoclaved at 120°C and 118 kPa over a period of 20 minutes. This preparation was added to a 20% fat emulsion (Intralipid^R) under strict aseptic conditions, such that the concentation of 4-methyl-3-oxo-pentanoic acid ethyl ester was 0.2 and 1 and 3% respectively. The emulsion was shaken for 5 minutes in a shaker and then placed in a cold environment (5°C). The emulsion was inspected over a period of 5 calender days, wherewith a visual inspection was carried out daily in order to ascertain the occurrence of any oil droplets that may form, creaming or oil separation. The assay was effected by comparison with a known emulsion for parenteral use (Intralipid^R 20%). […] The pH of the emulsion was measured after a 5 day storage period. The mean particle size was measured in a Coulter^R nanosizer. The following values were obtained:\nas §2, with “prepara tion” for “preparation”, “10%” for “20%”, “10%).” for “20%).”, “obtained: […]” for “obtained:”"}, "[2]": {"test": "Total parenteral nutrition (TPN) with ester as energy substitute in rats", "conditions": "9 days", "quoted_text": "Sprague-Dawley male rats weighing 180-190 g were sur­gically fitted with a central vein catheter protected by a saddle (Roos et al, 1981). Total parenteral nutrition (TPN) was administered in accordance with the following standard formula: Fat: 8 g/kg body weight and 24 hours Nitrogen: 1,2 g/kg body weight and 24 hours Total energy supplied: 1257 kJ/kg body weight and 24 hours Liquid: 300 ml/kg body weight and 24 hours The glucose to fat ratio was 70-30 energy percent. The energy percentage obtained from the energy substitutes during the test period corresponded to about 5% NPC. The TPN-mixture was obtained by mixing Vamin^R 14 (a solution of essential and non-essential amino acids for paren­teral nutrient administration, retailed by KabiVitrum AB) with no electrolytes, glucose solution 50% and Intralipid^R 20% in suitable proportions and adding adequate quantities of electrolytes, trace minerals and vitamins. Subsequent to infusing the rats continuously for one week (20 hours/day), the animals were divided randomly into three groups, with 6 animals in each group. The animals of one group were administered with the same TPN-formula as that previously mentioned (the reference group). […] The compounds were given in a dosage of 2 g/kg body weight and 24 hours in a yield corres­ponding to equivalent glucose energy quantities. In other respects, the TPN-program or formula was the same as that for the reference group. The experiment was then continued for a further 9 days, during which the weights of the animals were recorded daily and urine collected and frozen. At the end of the test period, the rats were killed by heart puncture while under a pentobarbital anesthetic and an autopsy was performed on the rat carcasses with microscopic examination. The body organs were sent to a laboratory for pathological assay."}}, "note": "Several values for one entry are separate records, joined by “and”; a condition that tells them apart may be missing. Equal values may be shown once.", "data": [{"smiles": "CCOC(=O)CC(=O)CC(C)C", "note": "[5-methyl-3-oxo-hexanoic acid ethyl ester]", "values": [{"measurement": "number of microorganisms", "setting": "E. coli ATCC 8739; 2 hrs", "result": 0}, {"measurement": "number of microorganisms", "setting": "E. coli ATCC 8739; 20 hrs", "result": 0}, {"measurement": "number of microorganisms", "setting": "Serr. maresc. ATCC 14756; 2 hrs", "result": 0}, {"measurement": "number of microorganisms", "setting": "Serr. maresc. ATCC 14756; 20 hrs", "result": 0}, {"measurement": "number of microorganisms", "setting": "Ulocladium sp. (mould); 2 hrs", "result": 5012}, {"measurement": "number of microorganisms", "setting": "Ulocladium sp. (mould); 20 hrs", "result": 0}, {"measurement": "Mean particle size, X", "setting": "[1]; 0.2% admix", "result": 322}, {"measurement": "pH", "setting": "[1]; 0.2% admix", "result": 7.4}, {"measurement": "Mean particle size (single readings, Coulter nanosizer)", "setting": "[1]; 0.2% admix", "result": "317 and 321 and 324"}, {"measurement": "Mean particle size, X", "setting": "[1]; 1% admix", "result": 319}, {"measurement": "pH", "setting": "[1]; 1% admix", "result": 7.0}, {"measurement": "Mean particle size (single readings, Coulter nanosizer)", "setting": "[1]; 1% admix", "result": "317 and 324 and 321"}, {"measurement": "Mean particle size, X", "setting": "[1]; 3% admix", "result": 324}, {"measurement": "pH", "setting": "[1]; 3% admix", "result": 6.7}, {"measurement": "Mean particle size (single readings, Coulter nanosizer)", "setting": "[1]; 3% admix", "result": "324 and 328 and 321"}, {"measurement": "emulsion quality, daily visual inspection", "setting": "[1]; 0.2% addition", "result": "No change in quality"}, {"measurement": "emulsion quality, daily visual inspection", "setting": "[1]; 1% addition", "result": "No change in quality"}, {"measurement": "emulsion quality, daily visual inspection", "setting": "[1]; 3-percent mixture", "result": "fully acceptable over the first 4 days"}, {"measurement": "emulsion stability, daily visual inspection", "setting": "[1]; Example 33: pure ester in 10% fat emulsion (Intralipid), 0.2%", "result": "stable over the whole of the test period"}, {"measurement": "emulsion stability, daily visual inspection", "setting": "[1]; Example 33: pure ester in 10% fat emulsion, 1%", "result": "stable over the whole of the test period"}, {"measurement": "emulsion stability, daily visual inspection", "setting": "[1]; Example 33: pure ester in 10% fat emulsion, 3%", "result": "stable over the whole of the test period"}, {"measurement": "emulsion stability, daily visual inspection", "setting": "[1]; Example 33: pure ester in 10% fat emulsion, 5%", "result": "stable over the first 2 days"}, {"measurement": "emulsion stability, daily visual inspection", "setting": "[1]; Example 33: pure ester in 20 percent emulsion, 0.2%", "result": "remained stable over the whole of the test period"}, {"measurement": "emulsion stability, daily visual inspection", "setting": "[1]; Example 33: pure ester in 20 percent emulsion, 1%", "result": "remained stable over the whole of the test period"}, {"measurement": "emulsion stability, daily visual inspection", "setting": "[1]; Example 33: pure ester in 20 percent emulsion, 3%", "result": "remained stable for 1 day"}, {"measurement": "toxicity at the dosages tested", "setting": "[2]; 2 g/kg body weight and 24 hours", "result": "non-toxic"}, {"measurement": "average growth per day during the whole of the test period", "setting": "[2]; ester 2 g/kg body weight and 24 hours in place of equivalent glucose energy", "result": "2.8 ± 0.2", "unit": "g"}]}]}
